According to paper PMC5951806, “Rapid labelling and covalent inhibition of intracellular native proteins using ligand-directed N-acyl-N-alkyl sulfonamide” (Nature Communications, 2018):

Tests used:
[1] = target: Sodium/potassium-transporting ATPase subunit alpha-1 (ATP1A1) (Homo sapiens, UniProt P05023); assay: TMT LC-MSMS of 11-labelled proteins; assay type: cell-based
From the text: (§1) The labelled proteins were enriched by immunoprecipitation with an anti-fluorescein antibody and tryptically digested in gel. Digested peptides were modified with Light- (L-), Medium- (M-), or Heavy- (H-) TMT reagent for samples treated with 11, 11 with PU-H71 (as competitive condition), or DMSO (vehicle), respectively, and mixed in a 1:1:1 ratio for LC-MSMS analysis. We performed three experimental replicates, in which proteins detected and quantified at least twice were selected as identified proteins. According to the related approach of Cravatt et al[44], the proteins having L/H (11/DMSO) ratios >5 were defined as 11-labelled proteins. […] On the basis of these criteria, we identified 6 proteins that react with 11, including three ligand-specific targets (Hsp90α (HSP90AA1), Hsp90β (HSP90AB1), and Grp94 (HSP90B1)) and three off-targets (Trifunctional enzyme subunit α (HADHA), Tubulin-α (TUBA1B), and ADP/ATP translocase 3 (SLC25A6)) (Fig. 5d, e and Supplementary Data 1). […] Grp94, a HSP90 isomer, was previously reported to be a PU-H71 specific target. TRAP-1, another Hsp90 isomer that can bind PU-H71, on the other hand, was not identified as 11-target by our criteria.
(§2) SKBR3 human breast cancer cells (2.0 × 10^6 cells) were seeded on a 10 cm dish and cultured for 3 days in McCoy’s 5A in a 5% CO2 humidified chamber at 37 °C. […] As competitive experiments, the labelling was conducted in the presence of PU-H71 (10 µM). After labelling, the cells were washed twice with PBS, and lysed with RIPA buffer. […] The supernatant was mixed with chilled acetone and incubated overnight at −80 °C. The protein precipitates were solubilized by sonication in 1 mL of RIPA buffer containing 1% SDS, and then 10-fold diluted with RIPA buffer to reduce SDS concentration to c.a. 0.1%. The protein solution (containing 1 mg of protein) was mixed with Protein G Sepharose 4 Fast Flow (GE Healthcare) and rotated at 4 °C for 1 h. After removal of the beads, the remaining supernatant was mixed with anti-fluorescein antibody (Abcam, ab19491, 7:10000) and rotated at 4 °C for 1 h, followed by addition of fresh Protein G Sepharose 4 Fast Flow and further incubation at 4 °C for 4 h. The beads were washed five times with RIPA buffer and once with PBS. Proteins were eluted from the beads by addition of 2 × sample buffer containing 100 mM DTT and boiling at 95 °C for 5 min. The samples were subjected to a 7.5% SDS–PAGE gel (Mini-PROTEAN TGX Gels, BioRad), and electrophoresed as the migration distance of dye front is about 10 mm. Each lane was excised (height, 10 mm), and treated with a 47.5% methanol / 47.5% pure water / 5% acetic acid for 20 min, a 50% methanol / 50% pure water for 10 min, and in pure water for 10 min. The gel pieces were dehydrated with 100% acetonitrile, and then swelled with 200 μL of 100 mM TEAB (triethylamine bicarbonate) buffer containing 10 mM DTT and heated at 56 °C for 30 min. The solutions were replaced with 200 µL of 100 mM TEAB buffer containing 55 mM iodoacetamide and incubated for 45 min in the dark. The gel pieces were washed with 100 mM TEAB buffer and dehydrated in acetonitrile. This step was repeated once. The gels were reswelled in 100 mM TEAB buffer containing 10 ng/μL Sequencing Grade Trypsin (Promega) and incubated overnight at 37 °C. To the gels, 50 μL of an extraction solution (50% acetonitrile, 0.1% TFA) was added. After 10 min incubation, the supernatants were collected to new tubes, and this process was repeated twice. Extracted peptides were dried in vacuo and reconstituted with 25 μL of 100 mM TEAB buffer.

[2] = target: T1, ATP-citrate synthase (ACLY) (Homo sapiens, UniProt P53396); assay: TMT LC-MSMS of 11-labelled proteins; assay type: cell-based
T1 sequence (P53396 1-1101): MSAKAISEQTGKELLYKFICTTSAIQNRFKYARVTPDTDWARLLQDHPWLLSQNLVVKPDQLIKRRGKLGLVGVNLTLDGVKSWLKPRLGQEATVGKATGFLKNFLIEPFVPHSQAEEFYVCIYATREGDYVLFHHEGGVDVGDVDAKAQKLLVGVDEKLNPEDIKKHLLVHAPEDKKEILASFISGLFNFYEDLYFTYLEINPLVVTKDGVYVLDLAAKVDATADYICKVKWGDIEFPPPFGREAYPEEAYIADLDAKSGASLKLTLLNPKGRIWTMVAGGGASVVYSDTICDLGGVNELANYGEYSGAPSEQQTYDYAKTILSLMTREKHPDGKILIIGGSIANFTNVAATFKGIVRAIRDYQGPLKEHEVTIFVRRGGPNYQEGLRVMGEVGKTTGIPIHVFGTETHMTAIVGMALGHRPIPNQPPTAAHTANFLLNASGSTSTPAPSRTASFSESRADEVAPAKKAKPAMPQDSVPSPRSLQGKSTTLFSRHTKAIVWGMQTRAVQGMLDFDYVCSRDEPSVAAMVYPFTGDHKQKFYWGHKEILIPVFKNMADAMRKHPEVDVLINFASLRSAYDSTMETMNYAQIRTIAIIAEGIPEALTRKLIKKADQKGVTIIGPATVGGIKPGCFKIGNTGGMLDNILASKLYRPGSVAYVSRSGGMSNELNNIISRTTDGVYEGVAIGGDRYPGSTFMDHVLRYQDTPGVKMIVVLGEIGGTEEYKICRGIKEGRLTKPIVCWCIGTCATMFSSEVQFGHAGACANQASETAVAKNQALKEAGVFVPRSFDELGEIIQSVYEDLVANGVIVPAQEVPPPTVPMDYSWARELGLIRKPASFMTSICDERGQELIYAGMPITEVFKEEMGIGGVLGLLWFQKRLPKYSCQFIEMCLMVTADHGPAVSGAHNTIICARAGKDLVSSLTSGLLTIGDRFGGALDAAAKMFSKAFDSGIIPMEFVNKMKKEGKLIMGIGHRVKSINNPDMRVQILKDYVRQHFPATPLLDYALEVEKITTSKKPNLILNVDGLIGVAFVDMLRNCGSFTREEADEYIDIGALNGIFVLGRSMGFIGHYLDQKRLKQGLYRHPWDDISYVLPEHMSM
From the text: as §1, §2

[3] = sheet Merged, SKBR3 cells, 11 0.5 µM 3 h vs DMSO
[4] = sheet Merged, SKBR3 cells, 11 0.5 µM 3 h vs with PU-H71 10 µM

CC(=O)Oc1ccc2c(c1)Oc1cc(OC(C)=O)ccc1C21OC(=O)c2cc(C(=O)NCCOCCOCCNC(=O)CCCC(=O)N(CC#N)S(=O)(=O)c3ccc(C(=O)NCCCn4c(Sc5cc6c(cc5I)OCO6)nc5c(N)ncnc54)cc3)ccc21 [compound 11]
Abundance Ratio: (11) / (11 with PU-H71) ([1]; Exp3, ATP1A1): 0.969 | Abundance Ratio: (11) / (DMSO) ([1]; Exp3, ATP1A1): 3.731 | Abundances (Grouped): 11 ([1]; Exp3, ATP1A1): 59.7 | Abundances (Grouped): 11 with PU-H71 ([1]; Exp3, ATP1A1): 61.6 | Abundance Ratio: (11) / (DMSO) ([1]; sheet Exp1, SKBR3 cells, 11 0.5 µM 3 h vs DMSO): 1.112 | Abundance Ratio: (11) / (11 with PU-H71) ([1]; sheet Exp1, SKBR3 cells, 11 0.5 µM 3 h vs with PU-H71 10 µM): 0.455 | Abundance Ratio: (11) / (11 with PU-H71) ([1]; sheet Exp2, ATP1A1): 0.735 | Abundance Ratio: (11) / (DMSO) ([1]; sheet Exp2, ATP1A1): 2.007 | Abundances (Grouped): 11 ([1]; sheet Exp2, ATP1A1): 162 | Abundances (Grouped): 11 with PU-H71 ([1]; sheet Exp2, ATP1A1): 220.4 | Abundance Ratio: (11) / (DMSO) [1, 3]: 1.112 | Abundance Ratio: (11) / (11 with PU-H71) [1, 4]: 0.455 | Abundance Ratio: (11) / (11 with PU-H71) ([2]; Exp3, ACLY): 0.932 | Abundance Ratio: (11) / (DMSO) ([2]; Exp3, ACLY): 2.236 | Abundances (Grouped): 11 ([2]; Exp3, ACLY): 52.1 | Abundances (Grouped): 11 with PU-H71 ([2]; Exp3, ACLY): 55.9 | Abundance Ratio: (11) / (11 with PU-H71) ([2]; sheet Exp2, ACLY): 0.837 | Abundance Ratio: (11) / (DMSO) ([2]; sheet Exp2, ACLY): 2.101 | Abundances (Grouped): 11 ([2]; sheet Exp2, ACLY): 33.4 | Abundances (Grouped): 11 with PU-H71 ([2]; sheet Exp2, ACLY): 39.9 | Abundance Ratio: (11) / (DMSO) [2, 3]: 2.047 | Abundance Ratio: (11) / (11 with PU-H71) [2, 4]: 0.851
